Assay results from patent US20250154145A1, “OXER1 ANTAGONISTS AND USES THEREOF” (Fairhaven Pharmaceuticals Ins., priority 2021, published 2025).

System: neutrophils
Assay: Neutrophil calcium flux assay (5-OXO-ETE-stimulated, Indo-1 fluorescence)
Type: cell-based
Settings: 5-OXO-ETE-stimulated calcium flux
Procedure: After isolation, neutrophils were resuspended in PBS without calcium and Magnesium (PBS −/−) at a concentration of 5×10^6 cells/ml. 2ul of Indo-1 (1 mM) were added per ml of cells. After incubation at 37° C. for 30 minutes, cells were washed twice in PBS −/− and resuspended at 5×10^6 cells/ml in assay buffer (HBSS 1× with calcium and magnesium and […]). In a 96-well Black optical clear bottom plate 100 μL of neutrophil were dispensed to each well. After incubation at 37° C. for 5 minutes, 50 μL of assay buffer or 3× antagonist were added and incubated for 5 min in a Tecan Spark plate reader (Tecan, Morrisville, NC). Baseline was measured for 30 sec (wavelength setup: excitation: 331 nm and emission:410 nm). When baseline is stable, 50p of 5-OXO-ETE at 200 nM (4×) or HBSS was added to appropriate wells. Fluorescence was measured every 5 seconds for 30 cycles. Results are expressed as Net fluorescence (FLU minus Background and injection peak). All data were analyzed using GraphPad Prism version 9 for Windows (GraphPad, San Diego, CA).

CC(CC(=O)O)CC(=O)c1c(CCCCCC(O)c2cccc(C#N)c2)n(C)c2ncc(Cl)cc12 (single isomer, unassigned) [Compound I-306] was tested, and the IC50 was over 300 nM.
Work on CC(CC(=O)O)CC(=O)c1c(CCCCCC(O)c2cccc(C#N)c2)n(C)c2ncc(Cl)cc12 (single isomer, unassigned) [Compound I-308] yielded an IC50 of under 100 nM.

Same assay, conditions: Neutrophil, 5-OXO-ETE-stimulated calcium flux

C[C@H](CC#N)CC(=O)c1c(CCCCOCc2cccc(Cl)c2)n(C)c2ncc(Cl)cc12 [Compound I-357] and CC(CC(=O)O)CC(=O)c1c(CCCCOCc2cccc(Cl)c2)n(CCO)c2ncc(Cl)cc12 (stereo not drawn) [Compound I-378] cannot be ordered by IC50: over 300 nM for the first, over 300 nM for the second.

Cn1c(CCCCCCCC#CC2CC(F)(F)C2)c(C(=O)N2CC[C@H](C(=O)O)C2)c2cc(Br)cnc21 [Compound I-350] and Cn1c(CCCCCCC#CC2CC(F)(F)C2)c(C(=O)N2CC[C@H](c3noc(=O)[nH]3)C2)c2cc(Br)cnc21 [Compound I-457] cannot be ordered by IC50: over 300 nM for the first, over 300 nM for the second.

COc1cccc(COCCCCc2c(C(=O)CC(C)CC(=O)O)c3cc(Cl)cnc3n2C)n1 (stereo not drawn) [Compound I-447] and C[C@H](CC(=O)O)CC(=O)c1c(CCOCC#Cc2cccnc2)n(C)c2ncc(Cl)cc12 [Compound I-228] cannot be ordered by IC50: over 300 nM for the first, over 300 nM for the second.

Cn1c(COCCCCC#CC2CC(F)(F)C2)c(C(=O)N2CC[C@H](C(=O)O)C2)c2cc(Cl)ccc21 [Compound I-349] and Cn1c(CCCCOCc2cccc(Cl)c2)c(C(=O)N2CC[C@H](C(=O)O)C2)c2cc(Cl)cnc21 [Compound I-175] cannot be ordered by IC50: over 300 nM for the first, over 300 nM for the second.

Compared with C[C@H](CC(=O)O)CC(=O)c1c(CCCCOCc2cccc(C#N)c2)n(C)c2c(F)cc(Cl)cc12 [Compound I-415], [2H]C([2H])([2H])n1c(CCCCOCc2cccc(Cl)c2)c(C(=O)C[C@H](C)CC(=O)O)c2cc(C#N)ccc21 [Compound I-421] is lower in IC50: over 300 nM for the first, under 100 nM for the second. The second is the more potent here.

Going from CC(CC(=O)NS(C)(=O)=O)CC(=O)c1c(CCCCOCc2cccc(Cl)c2)n(C)c2ccc(C#N)cc12 (stereo not drawn) [Compound I-300] to CC(CC(=O)O)CC(=O)c1c(CCCCOCc2cccc(OC(F)(F)F)c2)n(C)c2cnc(Cl)cc12 (stereo not drawn) [Compound I-412], the IC50 falls from over 300 nM to under 100 nM.

First: C[C@H](CC(=O)O)CC(=O)c1c(CCOCCNc2cccnc2)n(C)c2ccc(Cl)cc12 [Compound I-137]
Second: C[C@H](CC(=O)O)CC(=O)c1c(CCOCCOc2cccc(Cl)c2)n(C)c2ccc(Cl)cc12 [Compound I-64]
The IC50 of the first is higher: over 300 nM for the first, 100 to 300 nM for the second.

Compared with C[C@H](CC(=O)O)CC(=O)c1c(CCCCOCC2(C(F)(F)F)CC2)n(C)c2ccc(Cl)cc12 [Compound I-74], C[C@H](CC(=O)O)CC(=O)c1c(CCCCCCC#CC2CC(F)(F)C2)n(C)c2ncc(Cl)cc12 [Compound I-320] is lower in IC50: over 300 nM for the first, under 100 nM for the second.

C[C@@H]1[C@@H](C(=O)O)CCN1C(=O)c1c(CCCCCCC#CC2CC(F)(F)C2)n(C)c2ncc(C#N)cc12 [Compound I-346] and CC(CC(=O)O)CC(=O)c1c(CCCCCC(O)c2ccc(F)c(Cl)c2)n(C)c2ncc(C#N)cc12 (stereo not drawn) [Compound I-301] cannot be ordered by IC50: under 100 nM for the first, under 100 nM for the second.

CC(CC(=O)O)CC(=O)c1c2cc(C#N)cnc2n(C)c1[C@H]1CC[C@@H](COCc2cccc(Cl)c2)CC1 (stereo partly drawn) [Compound I-400] and CC(CC(=O)O)CC(=O)c1c2cc(C#N)cnc2n(C)c1[C@H]1CC[C@H](COCc2cccc(Cl)c2)CC1 (stereo partly drawn) [Compound I-401] cannot be ordered by IC50: over 300 nM for the first, over 300 nM for the second.

CC(CC(=O)O)CC(=O)c1c(CCCCOCCc2ccccc2)n(C)c2ncc(C#N)cc12 (stereo not drawn) [Compound I-424] and CC(CC(=O)O)CC(=O)c1c(CCCCCCc2cccc(Cl)c2)n(CCN(C)C)c2ncc(C#N)cc12 (stereo not drawn) [Compound I-281] cannot be ordered by IC50: over 300 nM for the first, over 300 nM for the second.

Compared with Cn1c(CCCCCCc2cccc(Cl)c2)c(C(=O)N2CC(C(=O)O)C2)c2cc(Cl)ccc21 [Compound I-151], Cn1c(CCCCCCc2cccc(Cl)c2)c(C(=O)N2CC(C(=O)O)C2)c2cc(Cl)cnc21 [Compound I-153] is higher in IC50: 100 to 300 nM for the first, over 300 nM for the second.

Work on Cn1cc(-c2cccc(Cl)c2)c(C(=O)N2CC[C@H](C(=O)O)C2)c1CCCCOCc1cccc(Cl)c1 [Compound I-167] yielded an IC50 of over 300 nM.
